As a reminder, the IC50 is the concentration at which inhibition is half-maximal.

Like-named read-outs stand apart in the source and are kept apart here.

The values that follow come from article PMC6323793 (BMC Cancer, 2019).

One experiment concerns the target T1, recombinant human Cdc25C (Homo sapiens, UniProt P30307).
T1 construct: purchased CycLex CY-1354
T1 sequence (P30307 1-473): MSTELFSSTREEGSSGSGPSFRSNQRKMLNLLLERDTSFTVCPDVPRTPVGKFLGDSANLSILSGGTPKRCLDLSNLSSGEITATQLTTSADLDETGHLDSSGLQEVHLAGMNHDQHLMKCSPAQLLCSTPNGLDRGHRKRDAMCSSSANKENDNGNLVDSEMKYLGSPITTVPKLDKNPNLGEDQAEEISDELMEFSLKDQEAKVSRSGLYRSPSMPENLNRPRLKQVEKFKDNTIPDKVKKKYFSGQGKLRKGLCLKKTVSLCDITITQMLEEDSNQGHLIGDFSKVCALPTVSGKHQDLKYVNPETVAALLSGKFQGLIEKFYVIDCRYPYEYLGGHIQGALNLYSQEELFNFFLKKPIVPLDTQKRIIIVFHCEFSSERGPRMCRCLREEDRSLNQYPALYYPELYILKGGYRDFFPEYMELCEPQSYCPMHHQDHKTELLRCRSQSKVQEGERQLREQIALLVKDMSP
Put plainly: Cdc25C fluorometric phosphatase assay (OMFP substrate). The class given is biochemical. How it is done:
(§1) In summary, dual-specificity phosphatase activity was measured in a 96-well microtiter plate using O-methylfluorescein phosphate (OMFP) as a substrate. 5 μL (0.1 μg/μL) of purified recombinant Cdc25s (Cdc25A, -B and -C) was mixed with 40 μL of assay mixture and incubated with 5 μL of the test compound at various concentrations in a well. Then, 25 μL of stop solution was added. […] Menadione is a quinone-type inhibitor of Cdc25s that was used as a positive control here.

Another experiment addresses T2, recombinant human Cdc25A (Homo sapiens, UniProt P30304).
T2 construct: purchased CycLex CY-1352
T2 sequence (P30304 1-524): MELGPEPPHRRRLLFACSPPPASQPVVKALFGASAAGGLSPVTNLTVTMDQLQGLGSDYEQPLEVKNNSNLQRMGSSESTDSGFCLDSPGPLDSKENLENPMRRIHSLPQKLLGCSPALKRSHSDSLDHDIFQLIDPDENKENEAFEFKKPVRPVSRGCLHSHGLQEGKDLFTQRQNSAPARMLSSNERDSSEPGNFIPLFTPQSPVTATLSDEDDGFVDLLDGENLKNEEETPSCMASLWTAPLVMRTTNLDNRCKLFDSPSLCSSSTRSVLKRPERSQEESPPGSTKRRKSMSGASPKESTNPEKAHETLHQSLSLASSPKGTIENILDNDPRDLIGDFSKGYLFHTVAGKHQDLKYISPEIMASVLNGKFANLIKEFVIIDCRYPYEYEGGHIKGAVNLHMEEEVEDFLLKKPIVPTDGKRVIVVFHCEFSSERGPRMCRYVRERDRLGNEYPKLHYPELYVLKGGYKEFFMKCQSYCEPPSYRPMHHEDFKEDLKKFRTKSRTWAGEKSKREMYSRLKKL
Put plainly: Cdc25A fluorometric phosphatase assay (OMFP substrate). The class given is biochemical. The protocol: as §1

For the next experiment, the target named is T3, recombinant human Cdc25B (Homo sapiens, UniProt P30305).
T3 construct: purchased CycLex CY-1353
T3 sequence (P30305 1-580): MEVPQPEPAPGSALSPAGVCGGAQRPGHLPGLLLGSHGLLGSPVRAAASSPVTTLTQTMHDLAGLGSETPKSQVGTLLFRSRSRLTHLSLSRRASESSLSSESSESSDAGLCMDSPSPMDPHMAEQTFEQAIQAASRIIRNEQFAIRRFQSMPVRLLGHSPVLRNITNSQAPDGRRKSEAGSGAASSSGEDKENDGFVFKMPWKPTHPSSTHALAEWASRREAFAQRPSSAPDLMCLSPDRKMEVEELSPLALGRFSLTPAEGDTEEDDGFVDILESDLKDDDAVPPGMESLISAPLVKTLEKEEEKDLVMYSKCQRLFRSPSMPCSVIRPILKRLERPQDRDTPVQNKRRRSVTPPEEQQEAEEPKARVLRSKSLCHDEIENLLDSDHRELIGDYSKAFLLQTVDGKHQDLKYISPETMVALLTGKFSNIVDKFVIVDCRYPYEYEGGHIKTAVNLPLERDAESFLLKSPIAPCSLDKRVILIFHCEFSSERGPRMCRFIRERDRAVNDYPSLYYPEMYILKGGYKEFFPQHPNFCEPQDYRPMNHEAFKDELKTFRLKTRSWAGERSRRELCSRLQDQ
The experiment is described as follows: Cdc25B fluorometric phosphatase assay (OMFP substrate). The class given is biochemical. The protocol:
Then, 25 μL of stop solution was added. Fluorescence was measured at an excitation wavelength of 485 nm and an emission wavelength of 530 nm using a fluorescence microplate reader (BioTek Instruments, Inc., Winooski, VT, USA). Menadione is a quinone-type inhibitor of Cdc25s that was used as a positive control here.

For experiment [1], the system named is tsFT210 cells. Put plainly: Cell cycle analysis by flow cytometry. The class given is cell-based, mouse. The following applies: synchronized tsFT210 cells released at 32 °C, treated for 6 h. How it is done: Cell cycle analysis was performed as described previously. […]. The harvested cells were stained with staining buffer (50 μg/ml propidium iodide, 0.1% sodium citrate and 0.2% NP-40) and analysed by Flow Cytometry (BD Biosciences). A final concentration of 0.5% DMSO was used for all compounds and as a negative control. Nocodazole, a potent mitotic blocker that arrests cells at the G2/M phase, was used as a positive control at a concentration of 100 nM.
In general terms: Flow cytometry measures light scatter and fluorescence of single cells or particles in a stream.

A further experiment relates to K562 xenograft tumour. The experiment is described as follows: K562 xenograph tumour model in mice. The class given is in vivo, mouse. The protocol: (§2) The mouse model was constructed according to our previous work. Balb/c mice (female, 5 weeks old), purchased from Shanghai SLAC Laboratory Animal Co., LTD (Shanghai, China), were subcutaneously injected into a 100 μL K562 cell suspension (5 × 10^6/mL, PBS) in the right flank of mice. […] The long and short dimensions of tumour size were measured by a digital calliper at days 1, 4, 8, 11, 16, 21, and 24 after treatment. The volume was calculated with the formula (long dimension) × (short dimension)^2/2. The mice were euthanized 2 days after the last treatment by the method of cervical dislocation.

Experiment [2] deals with tsFT210 cells. The experiment is described as follows: MTT anti-proliferation assay, tsFT210. The following applies: Mus musculus, tsFT210, 48 h, read-out: IC50 tsFT210. In general terms: Tetrazolium assays rely on reduction of a dye to a coloured formazan, in cell work by metabolically active cells.
Another experiment deals with K562 cells. Put plainly: MTT anti-proliferation assay, K562. The following applies: Homo sapiens, K562, 48 h, read-out: IC50 K562.
Another experiment concerns HeLa cells. The experiment is described as follows: MTT anti-proliferation assay, HeLa. The following applies: Homo sapiens, 48 h, read-out: IC50 HeLa.
The test system of experiment [3] is tsFT210 cells. Put plainly: Intracellular ROS assay (DCFH-DA) in tsFT210 cells. The class given is cell-based, mouse. The following applies: tsFT210 cells synchronized at G2 phase, 5 μM and 25 μM, 4 h, compared with control cells. How it is done: (§3) Reactive oxygen species (ROS) were detected with the fluorescent probe 2′,7′-dichlorofluorescin diacetate (DCFH-DA) as described by others. Briefly, MCF-7 cells or tsFT210 (synchronized at G2 phase) cells were plated in 96-well plates and loaded with 20 μM DCFH-DA for 30 min at 37 °C in culture medium. […] Untreated cells were used as control. Fluorescence was measured using a fluorescence microplate reader (BioTek Instruments, excitation wavelength: 485 nm, emission wavelength: 528 nm). The ROS levels were expressed as RFU (relative fluorescence unit).

The test system of experiment [4] is CDK1 (tyrosine 15 phosphorylation) in tsFT210 cells. Put plainly: Western blot of CDK1 phosphorylation status in cells. The following applies: cells in G2/M phase, 1 μM, 5 μM and 25 μM, 4 h. The class given is cell-based, mouse. How it is done: (§4) The phosphorylation status of CDK1 was analysed by Western blotting as described in our previous work. […] The protein concentration in cell lysates was confirmed by the Bradford method. Fifty micrograms of protein per lane was resolved on 10% SDS polyacrylamide gels, and the bands were transferred to PVDF membranes (Millipore). Nonspecific reactivity was blocked by 5% non-fat milk prepared in TBST (10 mM Tris, 150 mM NaCl, 0.05% Tween-20, pH 7.5) at room temperature for 1 h. The protein signals were captured with primary antibodies and the secondary antibodies according to the manufacturers’ instructions. In this process, the protein β-actin was used to normalize target protein. All antibodies used in this paper were purchased from Cell Signaling Technology (Inc, China).
In general terms: Immunoblotting shows a protein as a band on a membrane.

Experiment [5] relates to phosphorylated CDK1 in primary tumour tissues. The experiment is described as follows: Phosphorylated CDK1 in tumour tissue of K562-bearing mice. The class given is in vivo, mouse. The following applies: especially the 5 and 10 mg/kg groups, vs control group. The protocol:
as §4, §2

Experiment [6] has as its system MCF-7 cells. Put plainly: MTT anti-proliferation assay, MCF-7. The following applies: Homo sapiens, MCF7, 48 h, read-out: IC50 MCF-7.
For experiment [7], the system named is MCF-7 cells. Put plainly: Intracellular ROS assay (DCFH-DA) in MCF-7 cells. The following applies: 5 μM and 25 μM, 4 h, compared with control cells. The class given is cell-based. The protocol:
as §3

The mark [8] stands for this setting: recombinant human phosphatase, OMFP substrate, mean ± S.E.M., read-out: IC50 Cdc25C.
The mark [9] stands for this setting: recombinant human phosphatase, OMFP substrate, mean ± S.E.M., read-out: IC50 Cdc25A.
Where [10] appears, read: recombinant human phosphatase, OMFP substrate, mean ± S.E.M., read-out: IC50 Cdc25B.

Consider `CC(C)=CCC(OC(=O)CC(C)C)C1=CC(=O)c2c(O)ccc(O)c2C1=O` (centres unmarked) [Isovalerylshikonin], for which the IC50 on recombinant human Cdc25C (setting [8]) stood at 11 ± 0.97 µM; on recombinant human Cdc25A (setting [9]), 9.53 ± 0.78 µM.
In the case of `CC(=O)O[C@H](CC=C(C)C)C1=CC(=O)c2c(O)ccc(O)c2C1=O` [Acetylshikonin], the IC50 was found to be 4.67 ± 0.34 µM at recombinant human Cdc25C, 3.92 ± 0.66 µM on recombinant human Cdc25A and 3.87 ± 0.68 µM on recombinant human Cdc25B.
In the case of `COC(=O)Nc1nc2ccc(C(=O)c3cccs3)cc2[nH]1` [Nocodazole, reference compound], the “Effect on cell cycle progression” value with tsFT210 cells [1] is listed as “arrested the cells at the G2/M phase”.
Turning to `CC1=CC(=O)c2ccccc2C1=O` [menadione, reference compound], the figures for the IC50 on recombinant human Cdc25C, on recombinant human Cdc25A and on recombinant human Cdc25B were 5.13 ± 0.24 µM, 4.12 ± 0.87 µM and 5.37 ± 0.45 µM, respectively.
For the compound `CC(C)=CC[C@@H](OC(=O)C(C)C)C1=CC(=O)c2c(O)ccc(O)c2C1=O` [Isobutylshikonin], the IC50 on recombinant human Cdc25C (setting [8]) was 5.89 ± 0.43 µM; at recombinant human Cdc25A (setting [9]) it was 6.79 ± 1.02 µM.
With `CC(C)=CC[C@@H](O)C1=CC(=O)c2c(O)ccc(O)c2C1=O` [Shikonin], in the experiment with K562 xenograft tumour (K562-bearing mice, 1, 5, or 10 mg/kg every other day, 21 days, vs vehicle), the Tumour growth entry is reported as “concentration-dependently inhibited tumour growth”. Moreover, in the experiment with K562 xenograft tumour (K562-bearing mice, 1, 5, or 10 mg/kg, vs control group), the “Survival (Kaplan-Meier)” value is “prolonged”. Moreover, the IC50 was found to be 8.97 ± 0.87 µM in the experiment with tsFT210 cells [2]; 6.15 ± 0.46 µM in the experiment on K562 cells; 9.56 ± 1.03 µM in the experiment on HeLa cells; 4.78 ± 0.18 µM on recombinant human Cdc25C; 2.14 ± 0.21 µM at recombinant human Cdc25A; 6.82 ± 0.76 µM with MCF-7 cells [6]. In addition, the “Intracellular ROS” value with tsFT210 cells [3] and in the experiment on MCF-7 cells [7] was “increased significantly” each time. The “Phosphorylation status of CDK1 (Western blot)” value in experiment [4] was “induced an accumulation of the tyrosine 15-phosphorylated form of CDK1”. Further, the “Effect on cell cycle progression” value with tsFT210 cells [1] was “blocked at the G2/M phase in a concentration-dependent manner”. Also, in [5], the “Protein levels of phosphorylated CDK1 in primary tumour tissues” value is listed as “significantly increased”.
Turning to `CCC(C)C(=O)O[C@H](CC=C(C)C)C1=CC(=O)c2c(O)ccc(O)c2C1=O` (stereo partly drawn) [α-Methyl-η-butylshikonin], the IC50 at recombinant human Cdc25C (setting [8]) came to 13.5 ± 1.45 µM; on recombinant human Cdc25A (setting [9]) it was 11.2 ± 1.45 µM; on recombinant human Cdc25B (setting [10]), 14.3 ± 1.27 µM.
Consider `COc1cccc2c1C(=O)c1c(O)c3c(c(O)c1C2=O)C[C@@](O)(C(=O)CO)C[C@@H]3O[C@H]1C[C@H](N)[C@H](O)[C@H](C)O1` [Doxorubicin, reference compound], for which the results for the IC50 in the experiment with tsFT210 cells [2], in the experiment with HeLa cells and in the experiment with MCF-7 cells [6] were 0.56 ± 0.14 µM, 0.43 ± 0.06 µM and 0.28 ± 0.03 µM, respectively.
As for `CC(C)=CCC(OC(=O)C=C(C)C)C1=CC(=O)c2c(O)ccc(O)c2C1=O` (stereo not drawn) [β,β-Dimethylacrylshikonin], the IC50 on recombinant human Cdc25A (setting [9]) is 4.67 ± 0.85 µM; on recombinant human Cdc25B (setting [10]) it was 8.56 ± 0.67 µM.
As for `CC(C)=CCCC1=CC(=O)c2c(O)ccc(O)c2C1=O` [Deoxyshikonin], the IC50 stood at 6.33 ± 0.65 µM at recombinant human Cdc25C, 3.22 ± 0.76 µM on recombinant human Cdc25A and 7.32 ± 0.45 µM at recombinant human Cdc25B.
